The source of these data is paper PMC7894572 (Chemmedchem, 2020).

Structures can show the parent of a compound that is named as a salt. Where two headings read alike, the source gives them in different places.

Data set [1] addresses SARS‐CoV PL^pro (Severe acute respiratory syndrome coronavirus, UniProt P0C6X7). As to the kind of experiment: biochemical. It counts as biochemical.
Data set [2] concerns the target SARS‐CoV‐2 PL^pro (Severe acute respiratory syndrome coronavirus 2, UniProt P0DTD1). The data set is described as follows: biochemical. The format is biochemical.
The subject of data set [3] is SARS‐CoV‐2. As to the kind of experiment: microbe, parasite or virus in culture. To be noted: SARS‐CoV‐2, Vero E6 cells. It counts as cell-based.
Data set [4] is described as follows: in vitro. To be noted: African green monkey.
Where [5] appears, read: read-out: Percentage inhibition SARS‐CoV PL^pro.
Where [6] appears, read: read-out: Inhibition SARS‐CoV‐2 PL^pro, class (Table 2).
Setting [7] is: read-out: Percentage inhibition SARS‐CoV‐2 PL^pro.
Where [8] appears, read: read-out: Inhibition SARS‐CoV PL^pro, class (Table 2).
[9] abbreviates: read-out: Inhibition SARS‐CoV PL^pro, class (Table 1).
The mark [10] stands for this setting: read-out: Inhibition SARS‐CoV‐2 PL^pro, class (Table 1).

In general, inhibition refers to the drop in the measured response relative to a control, in per cent. By melting point is commonly meant the temperature of the solid-liquid transition. Compound `Cc1cccc2c1CN([C@H](C)c1cccc3ccccc13)C2.Cl` [Compound 14 a, 4‐Methyl‐2‐[(1R)‐1‐naphth‐1‐ylethyl]‐2,3‐dihydro‐1H‐isoindol hydrochloride] returned a melting point of 247 °C. In data set [1] (setting [5]), the inhibition at 10 µM was determined as 45%. For the same compound, the inhibition at 100 µM in data set [2] (setting [6]) is under 50%.
In general, IC50 refers to the midpoint of a concentration-inhibition curve. `C[C@@H](NC(=O)c1ccccc1Br)c1cccc2ccccc12` [Compound 2 g, 2‐Bromo‐N‐[(1R)‐1‐naphth‐1‐ylethyl]benzamide] registered a melting point of 153 °C. Also, the IC50 in data set [1] was 11 ± 2 µM. Moreover, the inhibition at 100 µM in data set [2] (setting [7]) turned out to be 73%.
Turning to `C[C@@H](c1cccc2ccccc12)N1Cc2ccccc2C1.Cl` [Compound 14 i, 2‐[(1S)‐1‐Naphth‐1‐ylethyl]‐2,3‐dihydro‐1H‐isoindol hydrochloride], the “Inhibition of SARS‐CoV PL^pro, in words” value in data set [1] was “abolished activity”. Also, the inhibition at 100 µM in data set [1] (setting [8]) and in data set [2] (setting [6]) was under 50% throughout. For the same compound, in data set [2], the “Inhibition of SARS‐CoV‐2 PL^pro, in words” value was “not show inhibitory activity”.
In turn, `Cc1ccc(NC(=O)OC(C)(C)C)cc1C(=O)N[C@H](C)c1cccc2ccccc12` [Compound 2 q, (R)‐tert‐Butyl (4‐Methyl‐3‐((1‐(naphth‐1‐yl)ethyl)carbamoyl)phenyl) carbamate] came in with an IC50 in data set [1] of 4.6 ± 0.4 µM.
`Cc1ccccc1C(=O)N[C@H](C)c1cccc2ccccc12` [Compound 2 a, 2‐Methyl‐N‐[(1R)‐naphth‐1‐ylethyl]benzamide, reference compound]: in data set [2], the IC50 turned out to be 6.9 ± 0.7 µM.
For the compound `Cc1ccccc1C(=O)NC(c1ccccc1)c1ccccc1` [Compound 4 c, N ‐(Diphenylmethyl)‐2‐methylbenzamide], the “Inhibition of SARS‐CoV PL^pro, in words” value in data set [1] was “inactive”. In addition, the inhibition at 100 µM in data set [1] (setting [9]) was under 50%.
The compound `C[C@@H](NC(=O)c1ccccc1F)c1cccc2ccccc12` [Compound 2 f, 2‐Fluor‐N‐[(1R)‐1‐naphth‐1‐ylethyl]benzamide] yielded a melting point of 135 °C. The IC50 in data set [1] turned out to be 9 ± 1 µM. Besides, the inhibition at 100 µM in data set [2] (setting [7]) was 67%.
`Cc1ccccc1C(=O)N[C@@H](C)c1cccc2ccccc12` [Compound 4 d, 2‐Methyl‐N‐[(1S)‐1‐naphth‐1‐ylethyl]benzamide]: the inhibition at 100 µM in data set [1] (setting [9]) and in data set [2] (setting [10]) was under 50% in each case. In addition, the “Inhibition of SARS‐CoV‐2 PL^pro, in words” value in data set [2] is on record as “not show inhibitory activity”.
Consider `c1ccc2c(c1)CN(Cc1cccc3ccccc13)C2` [Compound 14 c, 2‐(Naphth‐1‐ylmethyl)‐2,3‐dihydro‐1H‐isoindol hydrochloride], for which the inhibition at 100 µM in data set [1] (setting [8]) is under 50%.
Consider `C[C@@H](NC(=O)C1CCCCC1)c1cccc2ccccc12` [Compound 2 j, N ‐[(1R)‐1‐Naphth‐1‐ylethyl]cyclohexanecarboxamide], for which the melting point was determined as 170 °C. Further, in data set [1], the “Inhibition of SARS‐CoV PL^pro, in words” value is “inactive”. Also, the inhibition at 100 µM in data set [1] (setting [9]) was under 50%.
On the same counts, the results for `C[C@@H](NC(=O)C(c1ccccc1)c1ccccc1)c1cccc2ccccc12` [Compound 2 m, (R)‐N‐(1‐(naphthalen‐1‐yl)ethyl)‐2,2‐diphenylacetamide] are 152 °C, “no inhibition” and under 50%.
For the compound `Cc1cc(NS(C)(=O)=O)ccc1C(=O)N[C@H](C)c1cccc2ccccc12` [Compound 2 s, 2‐Methyl‐4‐[(methylsulfonyl)amino]‐N‐[(1R)‐1‐naphth‐1‐ylethyl]benzamide], the IC50 is 4.8 ± 0.3 µM in data set [1] and 10 ± 1 µM in data set [2].
In the case of `C[C@H](c1cccc2ccccc12)N1Cc2ccc([N+](=O)[O-])cc2C1` [Compound 14 f, 2‐[(1R)‐1‐Naphth‐1‐ylethyl]‐5‐nitro‐2,3‐dihydro‐1H‐isoindole], the “Inhibition of SARS‐CoV PL^pro, in words” value in data set [1] is reported as “Inactive”. Moreover, the inhibition at 100 µM in data set [1] (setting [8]) is under 50%.
As for `COc1ccc2c(c1)CN([C@H](C)c1cccc3ccccc13)C2` [Compound 14 d, 5‐Methoxy‐2‐[(1R)‐1‐naphth‐1‐ylethyl]‐2,3‐dihydro‐1H‐isoindol], in data set [1], the IC50 is 14 ± 1 µM. In addition, the inhibition at 100 µM in data set [2] (setting [6]) is under 50%.
With `Cc1ccccc1C(=O)NC(C)c1ccccc1` (stereo not shown) [Compound 4 a, 2‐Methyl‐N‐(1‐phenyl)benzamide], in data set [1] (setting [9]), the inhibition at 100 µM was under 50%.
In turn, `C[C@@H](NC(=O)c1ccccc1I)c1cccc2ccccc12` [Compound 2 h, 2‐Iodo‐N‐[(1R)‐1‐naphth‐1‐ylethyl]benzamide] displayed a melting point of 161 °C. For the same compound, inhibition in data set [1] was half-maximal at 25 ± 3 µM (IC50). Moreover, the inhibition at 100 µM in data set [2] (setting [10]) is under 50%.
On to `CC(C(=O)Nc1ccccc1F)c1cccc2ccccc12` (stereo not shown) [Compound 11 b, N ‐(2‐Fluorphenyl)‐2‐naphth‐1‐ylpropanamide], for which the melting point came to 116 °C. Further, in data set [1] (setting [9]), the inhibition at 100 µM was under 50%. The inhibition at 100 µM in data set [2] (setting [10]) is under 50%.
The compound `CC(C(=O)Nc1ccc(S(N)(=O)=O)cc1)c1cccc2ccccc12` (stereo not shown) [Compound 11 c, 2‐Naphth‐1‐yl‐N‐(4‐sulfamoylphenyl)propanamide] displayed a melting point of 206 °C. The inhibition at 100 µM in data set [1] (setting [9]) was under 50%. Moreover, the inhibition at 100 µM in data set [2] (setting [10]) was under 50%.
Consider `C[C@@H](NC(=O)c1ccccc1C(F)(F)F)c1cccc2ccccc12` [Compound 2 d, N ‐[(1R)‐1‐Naphth‐1‐ylethyl]‐2‐(trifluormethyl)benzamide], for which the inhibition at 100 µM in data set [1] (setting [9]) is under 50%.
`C[C@@H](NC(=O)c1ccccc1C#N)c1cccc2ccccc12` [Compound 2 e, (R)‐2‐Cyano‐N‐(1‐(naphth‐1‐yl)ethyl)benzamide] gave a melting point of 181 °C. The compound also showed an IC50 in data set [1] of 18 ± 2 µM. For the same compound, in data set [2] (setting [10]), the inhibition at 100 µM was under 50%.
Turning to `Cc1ccc(N(C)C)cc1C(=O)N[C@H](C)c1cccc2ccccc12` [Compound 2 r, (R)‐5‐(Dimethylamino)‐2‐methyl‐N‐[1‐(naphth‐1‐yl)ethyl]benzamide], the values for the IC50 in data set [1] and in data set [2] were 4 ± 0.2 µM and 10 ± 2 µM, respectively.
Turning to `C[C@@H](NC(=O)C(C)(C)C)c1cccc2ccccc12` [Compound 2 k], the melting point came to 131 °C. Moreover, the “Inhibition of SARS‐CoV PL^pro, in words” value in data set [1] is “inactive”. Also, the inhibition at 100 µM in data set [1] (setting [9]) is under 50%.
On to `CC(C(=O)NC1CCCCC1)c1cccc2ccccc12` (stereo not shown) [Compound 11 d, N ‐Cyclohexyl‐2‐naphth‐1‐ylpropanamide], for which the melting point is 151 °C. Moreover, the inhibition at 100 µM in data set [1] (setting [9]) was under 50%. The inhibition at 100 µM in data set [2] (setting [10]) was under 50%.
`C[C@@H](NC(=O)c1ccccc1)c1cccc2ccccc12` [Compound 2 c, N ‐[(1R)‐1‐Naphth‐1‐ylethyl]benzamide]: the melting point is 195 °C. The compound further had an IC50 in data set [1] of 62 ± 5 µM. Also, the inhibition at 100 µM in data set [2] (setting [7]) amounted to 60%.
On to `C[C@H](c1cccc2ccccc12)N1Cc2cccc(N)c2C1` [Compound 14 j, 2‐[(1R)‐1‐Naphth‐1‐ylethyl]‐2,3‐dihydro‐1H‐isoindol‐4‐amine], for which, in data set [1], the IC50 was 32 ± 2 µM. In addition, the inhibition at 100 µM in data set [2] (setting [6]) is under 50%.
Take `C[C@@H](NC(=O)Cc1ccccc1)c1cccc2ccccc12` [Compound 2 l, N ‐[(1R)‐1‐Naphth‐1‐ylethyl]‐2‐phenylacetamid]: the melting point was found to be 130 °C. The inhibition at 100 µM in data set [1] (setting [5]) came to 57%.
Compound `CNS(=O)(=O)c1ccc(C)c(C(=O)N[C@H](C)c2cccc3ccccc23)c1` [Compound 2 t, 2‐Methyl‐5‐(methylsulfamoyl)‐N‐[(1R)‐1‐naphth‐1‐ylethyl]benzamide] returned a melting point of 184 °C. This compound registered an IC50 in data set [1] of 4 ± 0.3 µM. Besides, in data set [2] (setting [7]), the inhibition at 100 µM was determined as 87%.
On to `Cc1ccccc1C(=O)NC(CO)c1cccc2ccccc12` (stereo not shown) [Compound 8, N ‐(2‐Hydroxy‐1‐naphth‐1‐ylethyl)‐2‐methylbenzamide], for which the “Inhibition of SARS‐CoV PL^pro, in words” value in data set [1] is on record as “inactivity”. In addition, the inhibition at 100 µM in data set [1] (setting [9]) was under 50%.
In turn, `Cc1cc(NC(=O)OC(C)(C)C)ccc1C(=O)N[C@H](C)c1cccc2ccccc12` [Compound 2 o, (R)‐tert‐Butyl(3‐Methyl‐4‐((1‐(naphth‐1‐yl)ethyl)carbamoyl)phenyl)carbamate] showed an IC50 in data set [1] of 1.6 ± 0.3 µM.
Regarding `Cc1ccccc1CN[C@H](C)c1cccc2ccccc12` [Compound 17, (1R)‐N‐(2‐Methylbenzyl)‐1‐naphth‐1‐ylethylamine hydrochloride], the inhibition at 100 µM in data set [1] (setting [5]) turned out to be 55%.
In the case of `C[C@H](c1cccc2ccccc12)N1Cc2ccc(N)cc2C1` [Compound 14 k, 2‐[(1R)‐1‐Naphth‐1‐ylethyl]‐2,3‐dihydro‐1H‐isoindol‐5‐amine], the IC50 stood at 4.9 ± 0.3 µM in data set [1] and 57 ± 1 µM in data set [2]. In addition, in data set [3], the “Activity in the viral replication assay, in words” value is “completely inactive”. Moreover, the CC50 in data set [4] is over 500 µM.
For `Cc1ccccc1NC(=O)C(C)c1cccc2ccccc12` (stereo not shown) [Compound 11 a, N ‐(2‐Methylphenyl)‐2‐naphth‐1‐ylpropanamide], the melting point was 151 °C. Besides, the inhibition at 100 µM in data set [1] (setting [9]) is under 50%. The “Inhibition of SARS‐CoV‐2 PL^pro, in words” value in data set [2] is given as “not show inhibitory activity”. Moreover, the inhibition at 100 µM in data set [2] (setting [10]) was under 50%.
In the case of `C[C@H](c1cccc2ccccc12)N1Cc2ccc(O)cc2C1` [Compound 14 l, 2‐[(1R)‐1‐Naphth‐1‐ylethyl]‐2,3‐dihydro‐1H‐isoindol‐5‐ol hydrochloride], in data set [1], the IC50 amounted to 4.5 ± 0.4 µM.
Consider “2‐Methyl‐N‐(naphth‐1‐ylethyl]benzamide [Compound 4 b]”, for which the “Inhibition of SARS‐CoV PL^pro, in words” value in data set [1] was “inactive”. Further, in data set [1] (100 µM), the “Inhibition SARS‐CoV PL^pro, class (Table 1)” value was “n.a.^[b] (key: Compounds with inhibitory effect less than 50 % at 100 μM compared to DMSO were labelled as not active (n.a.))”.
Regarding `C[C@H](c1cccc2ccccc12)N1Cc2cccc([N+](=O)[O-])c2C1` [Compound 14 e, 2‐[(1R)‐1‐Naphth‐1‐ylethyl]‐4‐nitro‐2,3‐dihydro‐1H‐isoindole], in data set [1], the “Inhibition of SARS‐CoV PL^pro, in words” value was “Inactive”. Also, in data set [1] (setting [5]), the inhibition at 10 µM is under 50%.
